In experiment [1] the target is Sentrin-specific protease 1 (Homo sapiens, UniProt Q9P0U3). Nature of the experiment: Dose response confirmation of small molecule inhibitors of the catalytic domain of the SUMO protease, SENP1 in a FRET assay. It counts as functional. The conditions noted are these: read-out: IC50_Mean.
Experiment [2] addresses T1, Tyrosine-protein phosphatase non-receptor type 11 (Homo sapiens, UniProt Q06124).
T1 sequence (Q06124 whole entry): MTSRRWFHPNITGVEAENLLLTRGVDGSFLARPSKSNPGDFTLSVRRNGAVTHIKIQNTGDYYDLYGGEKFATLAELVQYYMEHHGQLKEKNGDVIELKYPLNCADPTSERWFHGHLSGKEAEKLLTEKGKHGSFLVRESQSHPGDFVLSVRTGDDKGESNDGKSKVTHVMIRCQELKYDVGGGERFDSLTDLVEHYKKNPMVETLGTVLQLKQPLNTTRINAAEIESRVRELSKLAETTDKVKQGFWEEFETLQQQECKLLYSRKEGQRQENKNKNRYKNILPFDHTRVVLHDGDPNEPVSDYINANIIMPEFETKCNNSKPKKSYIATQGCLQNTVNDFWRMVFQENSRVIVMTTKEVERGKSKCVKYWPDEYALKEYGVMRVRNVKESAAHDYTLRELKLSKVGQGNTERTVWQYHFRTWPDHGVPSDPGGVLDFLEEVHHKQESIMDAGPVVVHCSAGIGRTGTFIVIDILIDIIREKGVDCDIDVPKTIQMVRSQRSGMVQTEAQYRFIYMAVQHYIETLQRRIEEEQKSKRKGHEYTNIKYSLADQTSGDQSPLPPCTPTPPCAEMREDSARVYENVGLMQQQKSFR
In words: PTPN11 enzyme inhibitors – biochemical, selectivity assay for STEP inhibitor project, dose response (AID 602367). Format: functional. The conditions noted are these: read-out: IC50_Mean.

Experiment [3] deals with T2, Tyrosine-protein phosphatase non-receptor type 5 (Homo sapiens, UniProt P54829).
T2 sequence (P54829 whole entry): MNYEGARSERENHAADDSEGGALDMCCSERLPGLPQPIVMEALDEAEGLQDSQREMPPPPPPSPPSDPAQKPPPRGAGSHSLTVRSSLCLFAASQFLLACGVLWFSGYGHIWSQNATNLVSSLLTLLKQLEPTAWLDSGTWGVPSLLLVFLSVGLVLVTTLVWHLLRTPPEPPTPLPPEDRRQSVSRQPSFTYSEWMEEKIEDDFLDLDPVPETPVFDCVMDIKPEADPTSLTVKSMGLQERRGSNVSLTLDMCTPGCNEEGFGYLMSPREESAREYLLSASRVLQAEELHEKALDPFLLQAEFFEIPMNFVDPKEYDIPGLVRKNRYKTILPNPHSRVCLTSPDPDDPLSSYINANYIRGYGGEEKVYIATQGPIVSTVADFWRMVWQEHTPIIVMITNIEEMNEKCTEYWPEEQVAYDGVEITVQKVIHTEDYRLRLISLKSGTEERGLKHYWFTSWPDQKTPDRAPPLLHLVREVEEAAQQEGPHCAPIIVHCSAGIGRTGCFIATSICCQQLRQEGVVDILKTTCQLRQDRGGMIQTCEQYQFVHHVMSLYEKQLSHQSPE
Nature of the experiment: PTPN5 enzyme inhibition – biochemical, fluorescence intensity, uHTS hits, confirmation (AID 602372). The settings on record: read-out: IC50_Mean. Format: functional.

Experiment [4] deals with Dual specificity protein phosphatase 3 (Homo sapiens, UniProt P51452). Nature of the experiment: VHR phosphatase inhibition, dose response, selectivity assay for STEP inhibitor project, biochemical (AID 602374). The settings on record: read-out: IC50_Mean. Format: functional.
Dual specificity protein phosphatase 3, sequence (P51452 whole entry): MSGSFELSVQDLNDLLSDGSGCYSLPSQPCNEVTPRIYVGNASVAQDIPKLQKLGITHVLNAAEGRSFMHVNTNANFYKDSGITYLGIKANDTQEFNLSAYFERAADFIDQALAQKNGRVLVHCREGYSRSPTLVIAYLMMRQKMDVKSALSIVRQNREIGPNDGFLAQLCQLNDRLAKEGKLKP
Experiment [5] deals with T3, Tyrosine-protein phosphatase non-receptor type 22 (Homo sapiens, UniProt Q9Y2R2).
T3 sequence (Q9Y2R2 whole entry): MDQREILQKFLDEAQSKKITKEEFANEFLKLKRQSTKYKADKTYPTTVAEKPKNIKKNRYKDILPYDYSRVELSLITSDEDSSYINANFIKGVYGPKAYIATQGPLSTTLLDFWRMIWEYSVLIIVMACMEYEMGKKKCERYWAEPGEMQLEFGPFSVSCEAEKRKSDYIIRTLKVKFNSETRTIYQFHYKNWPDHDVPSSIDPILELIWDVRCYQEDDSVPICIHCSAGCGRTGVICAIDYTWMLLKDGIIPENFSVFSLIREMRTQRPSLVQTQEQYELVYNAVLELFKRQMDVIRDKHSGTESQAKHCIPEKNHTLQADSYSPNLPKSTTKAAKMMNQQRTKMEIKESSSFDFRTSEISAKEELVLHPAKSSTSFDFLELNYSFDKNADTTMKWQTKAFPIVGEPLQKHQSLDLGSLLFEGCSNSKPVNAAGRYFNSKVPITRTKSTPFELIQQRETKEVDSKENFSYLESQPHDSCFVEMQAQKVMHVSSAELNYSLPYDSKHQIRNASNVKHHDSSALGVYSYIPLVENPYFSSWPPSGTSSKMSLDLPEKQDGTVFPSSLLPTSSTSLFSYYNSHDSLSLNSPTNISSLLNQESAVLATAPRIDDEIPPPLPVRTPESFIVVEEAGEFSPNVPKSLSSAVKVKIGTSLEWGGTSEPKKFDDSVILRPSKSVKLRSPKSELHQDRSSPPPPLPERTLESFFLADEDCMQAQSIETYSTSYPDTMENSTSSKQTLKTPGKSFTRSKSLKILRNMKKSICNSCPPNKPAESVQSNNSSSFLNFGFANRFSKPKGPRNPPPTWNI
In words: lymphoid phosphatase LYP inhibitors – biochemical, selectivity assay for STEP inhibitor project, dose response (AID 624241). It counts as functional.

Experiment [6] addresses Low molecular weight phosphotyrosine protein phosphatase (Homo sapiens, UniProt P24666). It counts as functional. The conditions noted are these: read-out: IC50_Mean.
The nature of experiment [7]: Luminescence Cell-Based Dose Confirmation HTS to Identify Activators of 5'UTR Stem-Loop Driven Alpha-Synuclein mRNA Translation in H4 Neuroglioblastoma Cells. [Related pubchem assays: 1829 (Project Summary), 1814 (Primary HTS)]. It counts as functional.
The nature of experiment [8]: Luminescence Cell-Based Dose Response HTS to Identify Activators of Luciferase Translation or Activity in H4 […] Cells. [Related pubchem assays: 1829 (Project Summary), 1814 (Primary HTS)]. It counts as functional.
Experiment [9] in a line: cells. It counts as functional, cell-based.
For a further experiment, the system named is H4. In words: Luminescence Cell-Based Dose Response HTS to Identify Activators of 5'UTR Stem-Loop Driven Prion Protein mRNA Translation in H4 Neuroglioblastoma Cells. [Related pubchem assays: 1829 (Project Summary), 1814 (Primary HTS)]. Format: functional. The settings on record: Homo sapiens.
The nature of experiment [10]: cells. Format: functional, cell-based. The source holds these as a separate data set.
The target in experiment [11] is ADP-ribosylation factor GTPase-activating protein 1 (Rattus norvegicus, UniProt Q62848). In words: Fluorescence polarization-based biochemical high throughput dose response screening assay to identify inhibitors of ADP-ribosylation factor GTPase activating protein 1 (ARFGAP1). Format: functional.
ADP-ribosylation factor GTPase-activating protein 1, sequence (Q62848 whole entry): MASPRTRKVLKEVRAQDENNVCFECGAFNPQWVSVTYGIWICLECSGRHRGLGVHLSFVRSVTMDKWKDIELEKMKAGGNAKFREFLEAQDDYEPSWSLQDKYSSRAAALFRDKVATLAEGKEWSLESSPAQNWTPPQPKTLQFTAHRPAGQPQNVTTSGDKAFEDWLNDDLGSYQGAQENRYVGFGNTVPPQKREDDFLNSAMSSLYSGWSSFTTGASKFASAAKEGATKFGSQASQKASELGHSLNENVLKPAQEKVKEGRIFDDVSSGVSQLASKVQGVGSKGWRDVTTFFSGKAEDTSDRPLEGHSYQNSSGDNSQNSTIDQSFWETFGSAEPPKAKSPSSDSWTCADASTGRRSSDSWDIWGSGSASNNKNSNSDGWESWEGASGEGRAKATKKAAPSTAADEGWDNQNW
In the next experiment the target is Mu-type opioid receptor (Homo sapiens, UniProt P35372). It counts as functional, cell-based.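 Further: U2OS cells with beta-arrestin recruitment to OPRM1 by beta-gal complementation.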
Mu-type opioid receptor, sequence (P35372 whole entry): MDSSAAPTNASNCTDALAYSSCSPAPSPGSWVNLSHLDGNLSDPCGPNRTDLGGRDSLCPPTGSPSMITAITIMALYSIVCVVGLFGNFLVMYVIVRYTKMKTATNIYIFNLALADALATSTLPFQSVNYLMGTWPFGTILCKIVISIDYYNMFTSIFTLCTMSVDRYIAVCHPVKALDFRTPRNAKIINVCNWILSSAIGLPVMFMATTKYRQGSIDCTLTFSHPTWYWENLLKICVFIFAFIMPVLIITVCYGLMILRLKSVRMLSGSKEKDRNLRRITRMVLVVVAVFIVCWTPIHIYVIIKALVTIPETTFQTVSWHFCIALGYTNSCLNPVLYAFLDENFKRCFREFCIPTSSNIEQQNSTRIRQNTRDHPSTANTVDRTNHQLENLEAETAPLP
For experiment [12], the target named is 5-hydroxytryptamine receptor 2A (Mus musculus, UniProt P35363). It counts as functional, cell-based.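 Further: CHO-K1 cells with tagged receptor and beta-arrestin; agonist potency measured as compound-induced activation of the receptor.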
5-hydroxytryptamine receptor 2A, sequence (P35363 whole entry): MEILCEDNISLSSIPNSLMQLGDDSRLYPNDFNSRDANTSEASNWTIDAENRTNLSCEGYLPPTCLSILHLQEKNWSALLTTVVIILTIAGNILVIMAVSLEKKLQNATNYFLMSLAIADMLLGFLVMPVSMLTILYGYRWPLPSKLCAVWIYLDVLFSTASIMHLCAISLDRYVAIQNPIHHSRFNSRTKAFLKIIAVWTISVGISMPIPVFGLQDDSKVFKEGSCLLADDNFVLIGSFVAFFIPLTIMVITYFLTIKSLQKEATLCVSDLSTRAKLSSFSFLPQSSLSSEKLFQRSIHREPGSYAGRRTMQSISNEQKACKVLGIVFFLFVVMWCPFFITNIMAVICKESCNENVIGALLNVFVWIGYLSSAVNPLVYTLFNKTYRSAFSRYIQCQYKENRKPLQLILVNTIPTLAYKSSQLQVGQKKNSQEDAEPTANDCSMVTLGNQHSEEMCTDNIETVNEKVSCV
In experiment [13] the target is Botulinum neurotoxin type F (Clostridium botulinum, UniProt P30996). Nature of the experiment: High-throughput multiplex microsphere dose response for inhibitors of toxin protease, specifically Botulinum neurotoxin light chain F protease, compounds from Cherry Pick 02. The conditions noted are these: read-out: EC50_MICROM. It counts as functional.
Botulinum neurotoxin type F, sequence (P30996 1-436 limits assumed): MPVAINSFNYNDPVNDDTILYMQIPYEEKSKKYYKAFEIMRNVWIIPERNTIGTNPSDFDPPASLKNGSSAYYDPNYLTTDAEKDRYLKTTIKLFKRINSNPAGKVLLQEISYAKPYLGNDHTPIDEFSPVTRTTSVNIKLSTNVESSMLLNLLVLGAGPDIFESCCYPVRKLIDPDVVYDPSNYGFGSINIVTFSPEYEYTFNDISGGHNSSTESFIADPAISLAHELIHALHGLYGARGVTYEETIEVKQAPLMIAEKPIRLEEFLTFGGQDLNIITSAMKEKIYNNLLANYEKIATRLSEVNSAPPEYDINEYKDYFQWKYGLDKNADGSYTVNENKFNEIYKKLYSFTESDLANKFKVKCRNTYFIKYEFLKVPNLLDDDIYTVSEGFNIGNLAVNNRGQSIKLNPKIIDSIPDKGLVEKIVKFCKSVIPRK
Experiment [14] has as its target T4, Small ubiquitin-related modifier 1 (Homo sapiens, UniProt P63165). In words: SUMO1 protein interaction blockers, potency – biochemical, fluorescence polarization, uHTS hits, dose response (AID 624382). It counts as functional. The conditions noted are these: read-out: IC50_Mean.
The target in experiment [15] is T4, Small ubiquitin-related modifier 1. Nature of the experiment: SUMO1 protein-protein binding blockers, potency – biochemical, FRET, dose response (AID 624383). Format: functional. The settings on record: read-out: IC50_Mean.
A short description of experiment [16]: activation of miR-122 Renilla sensor silencing – cell-based, Huh7 psiCHECK-miR122, Renilla luciferase, cherry-picked, dose response (AID 651956).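 Further: huh7 hepatoma cells stably carrying a psiCHECK-2 miR-122 sensor plasmid; renilla luciferase signal reporting endogenous miR-122 activity after 48 h compound exposure.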 Format: functional.
In experiment [17] the target is T5, Replicative DNA helicase DnaB (Mycobacterium tuberculosis, UniProt P9WMR3).
T5 sequence (P9WMR3 whole entry): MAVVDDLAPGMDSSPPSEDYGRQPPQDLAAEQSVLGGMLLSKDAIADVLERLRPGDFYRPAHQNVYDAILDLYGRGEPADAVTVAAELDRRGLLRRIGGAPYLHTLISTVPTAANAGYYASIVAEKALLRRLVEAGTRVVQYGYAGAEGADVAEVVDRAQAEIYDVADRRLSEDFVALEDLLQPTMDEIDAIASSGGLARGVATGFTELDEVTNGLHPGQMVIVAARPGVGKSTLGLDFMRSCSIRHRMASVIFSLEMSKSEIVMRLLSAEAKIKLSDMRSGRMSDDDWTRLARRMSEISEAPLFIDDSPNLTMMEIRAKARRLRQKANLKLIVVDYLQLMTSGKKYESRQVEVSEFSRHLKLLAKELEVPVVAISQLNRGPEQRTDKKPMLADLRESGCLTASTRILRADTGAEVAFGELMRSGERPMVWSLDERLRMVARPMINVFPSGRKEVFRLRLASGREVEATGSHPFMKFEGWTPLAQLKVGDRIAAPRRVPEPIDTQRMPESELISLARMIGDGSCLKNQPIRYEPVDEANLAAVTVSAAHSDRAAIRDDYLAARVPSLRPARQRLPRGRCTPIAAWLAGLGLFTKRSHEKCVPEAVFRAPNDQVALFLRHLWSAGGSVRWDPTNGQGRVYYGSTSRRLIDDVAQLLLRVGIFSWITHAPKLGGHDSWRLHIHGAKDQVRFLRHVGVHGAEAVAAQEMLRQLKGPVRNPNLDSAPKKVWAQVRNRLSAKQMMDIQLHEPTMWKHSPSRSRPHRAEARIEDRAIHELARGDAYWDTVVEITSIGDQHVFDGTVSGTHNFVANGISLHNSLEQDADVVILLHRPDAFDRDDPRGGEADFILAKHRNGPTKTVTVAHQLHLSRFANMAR
In words: DnaB intein splicing inhibitors, dose response, biochemical, cell-free fluorescence (AID 449749). It counts as functional.

The next experiment concerns the target T6, Protein RecA (Mycobacterium tuberculosis, UniProt P9WHJ3).
T6 sequence (P9WHJ3 whole entry): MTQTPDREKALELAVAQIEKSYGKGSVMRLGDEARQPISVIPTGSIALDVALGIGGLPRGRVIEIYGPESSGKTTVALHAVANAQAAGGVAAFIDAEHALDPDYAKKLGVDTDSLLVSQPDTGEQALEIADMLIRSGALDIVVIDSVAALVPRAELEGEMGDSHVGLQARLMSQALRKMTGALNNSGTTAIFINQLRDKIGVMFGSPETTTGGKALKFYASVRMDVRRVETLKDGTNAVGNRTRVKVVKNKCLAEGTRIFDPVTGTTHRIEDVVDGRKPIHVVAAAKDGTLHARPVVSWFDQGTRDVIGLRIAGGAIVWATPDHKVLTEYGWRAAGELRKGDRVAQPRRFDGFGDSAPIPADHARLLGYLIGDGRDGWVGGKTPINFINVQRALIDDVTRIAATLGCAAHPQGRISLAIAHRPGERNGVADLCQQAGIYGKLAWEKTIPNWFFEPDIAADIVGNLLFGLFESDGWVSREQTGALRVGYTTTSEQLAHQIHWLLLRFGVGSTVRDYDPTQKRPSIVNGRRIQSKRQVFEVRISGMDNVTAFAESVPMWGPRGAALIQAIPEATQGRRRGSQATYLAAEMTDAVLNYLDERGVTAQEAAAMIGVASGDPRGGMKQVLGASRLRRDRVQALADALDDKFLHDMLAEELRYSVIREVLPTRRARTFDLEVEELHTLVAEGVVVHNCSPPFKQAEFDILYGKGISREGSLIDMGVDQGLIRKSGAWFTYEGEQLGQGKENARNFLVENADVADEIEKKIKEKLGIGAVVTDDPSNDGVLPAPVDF
Nature of the experiment: Fluorescence Cell-Free Homogeneous Dose Retest to Identify Inhibitors of RecA-Intein Splicing Activity. [Related pubchem assays (depositor defined):AID2097, AID2223, AID489010, AID492950]. Format: functional.

Experiment [18] addresses T7, Sentrin-specific protease 8 (Homo sapiens, UniProt Q96LD8).
T7 sequence (Q96LD8 whole entry): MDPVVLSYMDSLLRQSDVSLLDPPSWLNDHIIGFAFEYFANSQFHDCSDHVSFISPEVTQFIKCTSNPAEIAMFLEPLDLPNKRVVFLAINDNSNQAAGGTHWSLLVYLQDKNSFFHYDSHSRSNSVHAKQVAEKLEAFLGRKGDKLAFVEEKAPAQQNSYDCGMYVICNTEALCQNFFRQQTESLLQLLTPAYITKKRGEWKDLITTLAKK
It counts as functional.

The source made the active and inactive calls. Where only a bound is given, the exact number is not on record here.

T4 sequence (P63165 whole entry): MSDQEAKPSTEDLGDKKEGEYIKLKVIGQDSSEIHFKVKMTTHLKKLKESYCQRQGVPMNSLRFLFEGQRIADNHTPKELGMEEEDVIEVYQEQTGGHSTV
Sentrin-specific protease 1, sequence (Q9P0U3 whole entry, the tested form may be a part): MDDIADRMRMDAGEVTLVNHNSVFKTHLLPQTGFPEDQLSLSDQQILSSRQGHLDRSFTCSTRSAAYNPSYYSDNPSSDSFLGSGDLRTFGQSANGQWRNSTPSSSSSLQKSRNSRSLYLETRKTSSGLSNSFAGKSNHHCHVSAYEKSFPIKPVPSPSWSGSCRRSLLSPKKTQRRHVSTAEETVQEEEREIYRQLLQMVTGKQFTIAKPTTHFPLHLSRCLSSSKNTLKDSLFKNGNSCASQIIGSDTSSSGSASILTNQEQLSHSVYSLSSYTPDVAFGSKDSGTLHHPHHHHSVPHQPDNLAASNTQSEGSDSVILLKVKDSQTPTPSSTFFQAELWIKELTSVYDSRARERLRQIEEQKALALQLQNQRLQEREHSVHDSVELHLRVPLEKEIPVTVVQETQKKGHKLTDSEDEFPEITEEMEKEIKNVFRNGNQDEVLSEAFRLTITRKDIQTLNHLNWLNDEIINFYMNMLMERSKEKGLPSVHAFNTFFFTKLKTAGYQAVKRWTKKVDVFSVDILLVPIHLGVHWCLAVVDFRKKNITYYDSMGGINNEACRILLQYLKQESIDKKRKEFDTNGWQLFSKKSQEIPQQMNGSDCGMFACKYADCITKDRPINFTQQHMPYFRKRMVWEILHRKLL
Low molecular weight phosphotyrosine protein phosphatase, sequence (P24666 whole entry): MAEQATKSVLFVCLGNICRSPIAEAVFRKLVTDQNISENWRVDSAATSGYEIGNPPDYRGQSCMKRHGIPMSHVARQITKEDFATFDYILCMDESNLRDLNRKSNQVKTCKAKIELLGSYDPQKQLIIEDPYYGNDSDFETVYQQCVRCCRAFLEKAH

Regarding `COc1ccc(OC)c(CCNC(=O)c2ccc3c(=O)[nH]c4c(C(=O)NC(C)C)sc(=S)n4c3c2)c1`, the IC50 in [1] is 20.9 µM (inactive).

Consider `O=C(/C=C/c1ccc(Cl)cc1)NC(=S)Nc1ccc(C(=O)O)cc1`, for which the IC50 in [2] is 5.89 µM (active); in experiment [3], 9.21 µM (active); in experiment [4], 5.4 µM (active); in [5], 44.2 µM (inactive); in experiment [6], 15.4 µM (active).

Take `Cc1ccc2nc(SCC(=O)c3ccccc3)nc(=O)n2c1`: the EC50 in experiment [7] was 33.8 µM (active); in experiment [8], 11 µM (active); in the experiment “cells [9]”, > 350 µM (not active); with H4, 24 µM (active); in the experiment “cells [10]”, 37.8 µM (active). In addition, the IC50 in experiment [11] was 52.5 µM (inactive).

As for `COc1cccc(OCC(O)CN2CCN(c3ccccn3)CC2)c1` (stereo unspecified), the EC50 on Mu-type opioid receptor was 92.4 µM (inactive); in experiment [12], 1.46 µM (active).

Regarding `COc1ccc(C(CNC(=O)c2cc(S(=O)(=O)N3CCCCC3)ccc2C)N2CCCC2)cc1` (stereo unspecified), the EC50 in experiment [13] is > 20 µM (inactive).

For `CC(=O)c1cccc(NC(=O)c2cccc3c(-c4cccc(C(N)=O)c4)coc23)c1`, the IC50 in [14] is > 66.6 µM (inactive); in experiment [15], 20.4 µM (inactive).

`COc1cccc(NC(=O)N(C)C[C@@H]2Oc3ncc(C#Cc4ccncc4)cc3C(=O)N([C@@H](C)CO)C[C@H]2C)c1`: in [16], the AC50 is 36.1 µM (active).

With `COc1ccc(-c2cc(=O)n(CCC#N)[nH]2)cc1`, the AC50 in [17] is 2.05 µM (active). The EC50 on Protein RecA is 1.02 µM (active). Also, the IC50 in experiment [18] is 50.8 µM (active).

These data come from ChEMBL document CHEMBL1201862, “PubChem BioAssay data set” (2004).
